According to patent US5135910A, “Nisin compositions for use as enhanced, broad range bactericides” (The Public Health Research Institute of the City of New York, priority 1991, dated 1992):

Assays:
[1] = tested on: Streptococcus agalactiae; assay: bactericidal activity towards Streptococcus agalactiae in milk; type: cell-based
Procedure: (§1) All tests in the following examples were performed at 37° C. The efficacy of the enhanced broad range bactericides was determined by assaying bactericidal activity as measured by the percent bacterial survival after treatment with the bactericide. Generally, after incubation of a 10^7 cell per ml suspension of target species with the novel bactericide for specified lengths of time, bacteria were collected by centrifugation for 2 minutes. […] Surviving bacteria were determined by scoring colony forming units (CFU) after incubation for 24-48 hours at 37° C. An effective bactericide according to this invention is one which allows less than 0.1% of the initial viable count of the bacteria to survive.
However, the combination of the two agents, 0.1% monolaurin and nisin 0.2 μg/ml, is extremely potent towards S. agalactiae. […] Thus, when the application of nisin is limited by its available activity, a bactericide comprising nisin with a surfactant can be expected to be more useful.
(§2) Incubations were in milk at 37° C.

[2] = tested on: S. typhimurium on chicken muscle; assay: bactericidal activity towards S. typhimurium on chicken muscle (unadhered cells); type: cell-based, Salmonella typhimurium
Procedure: as §1
Incubations were performed in either 50 mM sodium acetate, pH 5.0, or 20 mM […], pH 8.0 at 37° C.
Cubes of chicken muscle were cleansed with sodium hypochlorite and povidone iodine prior to use. To inoculate the tissue, the cubes of chicken muscle were dipped into a 10^8 cells/ml suspension of S. typhimurium in 20 mM Tris HCl, pH 8.0. Excess moisture was removed from dipped cubes by tapping. The chicken samples were placed into sufficient buffer containing the nisin composition to cover the tissue and incubated for 2 hours at 37° C. after which the tissue was removed to sufficient Phage buffer to cover the tissue. The bacteria remaining in the test solution were collected by centrifugation, washed with Phage buffer, and combined with bacteria washed from the tissue by Phage buffer. The combined samples (termed "unadhered" cells) were serially diluted and 100μl aliquots were plated for determination of surviving bacteria.
(§3) Cubes of chicken muscle were cleansed with sodium hypochlorite and povidone iodine prior to use. To inoculate the tissue, the cubes of chicken muscle were dipped into a 10^8 cells/ml suspension of S. typhimurium in 20 mM Tris HCl, pH 8.0. Excess moisture was removed from dipped cubes by tapping. The tissue was placed into sufficient buffer containing the nisin compositions to cover the tissue, and incubated for 2 hours at 37° C. after which the tissue was removed to sufficient Phage buffer to cover the tissue. The bacteria remaining in the test solution were collected by centrifugation, washed with Phage buffer, and combined with bacteria washed from the tissue by Phage buffer. The combined samples (termed "unadhered" cells) were serially diluted and 100 μl aliquots were plated for determination of surviving bacteria.
as §3, with “cleaned” for “cleansed”, “with” for “with sodium”, “50” for “20”, “sodium acetate buffer,” for “Tris HCl,”, “5.0.” for “8.0.”, “containing” for “containing the”

[3] = tested on: Listeria monocytogenes; assay: bactericidal activity, percent survival, Listeria monocytogenes in Tris buffer; type: cell-based; conditions: 20 mM Tris-HCl pH 8.0
Procedure: as §1
(§4) Incubations were performed in 20 mM TrisHCl, pH 8.0 at 37° C.

[4] = tested on: Streptococcus mutans; assay: rapid bactericidal activity towards Streptococcus mutans in the presence of divalent cation, 10% fetal calf serum; type: cell-based; conditions: nisin 3, no EDTA, CaCl3 0 mM
Procedure: (§5) All tests in the following examples were performed at 37° C. The efficacy of the enhanced broad range bactericides was determined by assaying bactericidal activity as measured by the percent bacterial survival after treatment with the bactericide. Generally, after incubation of a 10^7 cell per ml suspension of target species with the novel bactericide for specified lengths of time, bacteria were collected by centrifugation for 2 minutes. The bacterial pellet was washed free of the bactericide with a rescue buffer, termed herein Phage buffer (50 mM Tris-HCl buffer pH 7.8, 1 mM MgSO4, 4 mM CaCl2, 0.1 M Nacl, and 0.1% gelatin), resuspended and serially diluted into Phage buffer, and 100 μl of the suspended bacteria were spread on nutrient agar plates. Surviving bacteria were determined by scoring colony forming units (CFU) after incubation for 24-48 hours at 37° C.
Incubations performed in 10% Fetal Calf Serum at 37° C.

[5] = tested on: S. typhimurium; assay: bactericidal activity, percent bacterial survival, S. typhimurium suspension; type: cell-based, Salmonella typhimurium; conditions: for Percentage S. typhimurium Survival at 3 hours: 20 mM Tris pH 8.0, 37° C.
Procedure: as §1, with “C.” for “C. An effective bactericide according to this invention is one which allows less than 0.1% of the initial viable count of the bacteria to survive.”
The control (Test #1) is identical to the control of Example 1 (Table 1).

[6] = tested on: Listeria monocytogenes; assay: bactericidal activity towards Listeria monocytogenes in milk; type: cell-based
Procedure: as §1
An example of where the application of nisin is limited by its available activity is illustrated by the data in Table 15B.
as §2

[7] = tested on: E. coli; assay: bactericidal activity, percent bacterial survival, E. coli suspension; type: cell-based, Escherichia coli; conditions: for Percentage E. coli Survival at 2 hours: 20 mM Tris pH 8.0, 37° C.
Procedure: as §1, with “C.” for “C. An effective bactericide according to this invention is one which allows less than 0.1% of the initial viable count of the bacteria to survive.”
The effects of the bactericide were measured as a function of percentage bacteria survival after 2 hours.
Incubations were performed in 20 mM Tris, pH 7.0 at 37° C.

[8] = tested on: Streptococcus mutans; assay: bactericidal activity, percent survival, Streptococcus mutans in Tris buffer; type: cell-based; conditions: for % Survival (S. mutans kinetics): nisin 0, 1.0 mM EDTA, Tris-HCl pH 7.3
Procedure: as §5
The suspensions were incubated for various times ranging from 0.5 to 60 minutes with the bactericides. The bactericidal efficacy of the bactericides was estimated by determining the percent survival of bacteria.
Incubations were performed in 20 mM TrisHCl, pH 7.3 at 37° C.

[9] = tested on: Staphyloccus aureus; assay: bactericidal activity, percent survival, Staphylococcus aureus; type: cell-based
Procedure: as §1
Incubations were performed in 50 mM sodium acetate buffer, pH 5.0 or 20 m
TrisHCl buffer, pH 8.0 at 37° C.

[10] = tested on: Coryneform bacteria; assay: bactericidal activity, percent survival, axillary Coryneform bacteria; type: cell-based; conditions: 20 mM Tris-HCl pH 8.0
Procedure: as §1, §4

[11] = tested on: K. pneumoniae; assay: bactericidal activity, percent bacterial survival, K. pneumoniae suspension; type: cell-based, Klebsiella pneumoniae; conditions: 20 mM Tris pH 8.0, 37° C.
Procedure: as §1, with “C.” for “C. An effective bactericide according to this invention is one which allows less than 0.1% of the initial viable count of the bacteria to survive.”
The effect was measured as a function of percentage bacterial survival after 2 hours.

Compound: nisin
- % survival at 2 h (S. agalactiae) ([1]; nisin 0.02 μg/ml, monolaurin 0, 37° C.): 100%
- % survival at 2 h (S. agalactiae) ([1]; nisin 0.2 μg/ml, monolaurin 0, 37° C.): 2.2%
- bactericidal activity towards Streptococcus agalactiae ([1]; nisin at concentrations up to 0.2 μg/ml): does not exhibit significant bactericidal activity
- % Survival at 2 hours, unadhered cells ([2]; nisin 300 μg/ml, EDTA 0, pH 5.0): 0.1%
- % Survival at 2 hours, unadhered cells ([2]; nisin 300 μg/ml, EDTA 0, pH 8.0): 7.5%
- % Survival at 2 hours, unadhered cells ([2]; nisin 300 μg/ml, EDTA 0, pH 8.0, contains 1% BSA): 0.02%
- % Survival after 2 hr (L. monocytogenes) ([3]; nisin 3.0 μg/ml, EDTA 0): 0.71%
- % survival at 1 min. (S. mutans) [4]: 2.9%
- % Survival at 2 hours (S. typhimurium) ([5]; Table 8 test 1: nisin 10 μg/ml, EDTA 0, BSA 0): 51.3%
- % Survival at 2 hours (S. typhimurium) ([5]; Table 8 test 1: nisin 100 μg/ml, EDTA 0, BSA 0): 1.6%
- Percentage S. typhimurium Survival at 3 hours ([5]; nisin 10 μg/ml, EDTA 0 mM): 51.3%
- Percentage S. typhimurium Survival at 3 hours ([5]; nisin 50 μg/ml, EDTA 0 mM): 7.0%
- % Survival at 2 hours (S. typhimurium) ([5]; nisin 100 μg/ml, EDTA 0, 20 mM Tris pH 8.0 (Table 6)): 4%
- % Survival at 2 hours (S. typhimurium) ([5]; nisin 100 μg/ml, EDTA 0, 50 mM sodium acetate pH 5.0): 0.6%
- Percentage S. typhimurium Survival at 3 hours ([5]; nisin 100 μg/ml, EDTA 0 mM): 1.6%
- % Survival 2 hr (L. monocytogenes) ([6]; nisin 100 μg/ml, monooleate 0, 37° C.): 0.56%
- Percentage E. coli Survival at 2 hours ([7]; nisin 30 μg/ml, EDTA 0, Triton X-100 0): 27%
- Percentage E. coli Survival at 2 hours ([7]; nisin 100 μg/ml, EDTA 0, Triton X-100 0): 25%
- Percentage E. coli Survival at 2 hours ([7]; nisin 300 μg/ml, EDTA 0, Triton X-100 0): 8.5%
- % Survival after 2 hr (S. mutans) ([8]; nisin 0.1 μg/ml, EDTA 0, 20 mM Tris-HCl pH 8.0): 4.3%
- % Survival 2 hr (S. aureus) ([9]; nisin 3.0 μg/ml, EDTA 0, pH 5.0): 0.6%
- % Survival 2 hr (S. aureus) ([9]; nisin 3.0 μg/ml, EDTA 0, pH 8.0): 7.4%
- % Survival 2 hr (Coryneform bacteria) ([10]; nisin 3 μg/ml, EDTA 0): 0.22%
- % Survival at 2 hours (K. pneumoniae) ([11]; nisin 100 μg/ml, EDTA 0): 50%
- % Survival at 2 hours (K. pneumoniae) ([11]; nisin 300 μg/ml, EDTA 0): 38%

Compound: O=C([O-])CN(CCN(CC(=O)[O-])CC(=O)O)CC(=O)O.[Na+].[Na+] [EDTA]
- % Survival at 2 hours ([2]; nisin 0, EDTA 1.0 mM, BSA 1.0%, pH 8.0): 27%
- % Survival at 2 hours, unadhered cells ([2]; nisin 0, EDTA 10 mM, pH 5.0): 6.4%
- % Survival at 2 hours, unadhered cells ([2]; nisin 0, EDTA 10 mM, pH 8.0): 5.2%
- % Survival after 2 hr (L. monocytogenes) ([3]; nisin 0, EDTA 1.0 mM): 84%
- % Survival at 2 hours (S. typhimurium) ([5]; nisin 0, EDTA 1.0 mM, BSA 1.0%, 20 mM Tris pH 8.0): 63%
- % Survival at 2 hours (S. typhimurium) ([5]; nisin 0, EDTA 2.0 mM, 20 mM Tris pH 8.0): 8.7%
- % Survival at 2 hours (S. typhimurium) ([5]; nisin 0, EDTA 2.0 mM, 50 mM sodium acetate pH 5.0): 38.7%
- % Survival at 2 hours (S. typhimurium) ([5]; nisin 0, EDTA 10 mM, 20 mM Tris pH 8.0): 14%
- % Survival at 2 hours (S. typhimurium) ([5]; nisin 0, EDTA 10 mM, 50 mM sodium acetate pH 5.0): 15.2%
- Percentage S. typhimurium Survival at 3 hours ([5]; nisin 0, EDTA 20 mM): 2.5%
- % Survival at 2 hours (S. typhimurium) ([5]; nisin 0, EDTA 50 mM, 20 mM Tris pH 8.0): 11.4%
- % Survival at 2 hours (S. typhimurium) ([5]; nisin 0, EDTA 50 mM, 50 mM sodium acetate pH 5.0): 3.5%
- % Survival at 2 hours (S. typhimurium) ([5]; nisin 0, EDTA 100 mM, 20 mM Tris pH 8.0): 45%
- % survival at 1 min (E. coli) ([7]; nisin 0, EDTA 1.0 mM, 20 mM Tris pH 7.0): 100%
- % Survival (S. mutans kinetics) ([8]; incubation 3 min): 100%
- % Survival (S. mutans kinetics) ([8]; incubation 60 min): 100%
- % Survival 2 hr (S. aureus) ([9]; nisin 0, EDTA 0.3 mM, pH 8.0): 100%
- % Survival 2 hr (S. aureus) ([9]; nisin 0, EDTA 1.0 mM, pH 8.0): 81%
- % Survival 2 hr (S. aureus) ([9]; nisin 0, EDTA 3.0 mM, pH 5.0): 100%
- % Survival 2 hr (S. aureus) ([9]; nisin 0, EDTA 3.0 mM, pH 8.0): 100%
- % Survival 2 hr (S. aureus) ([9]; nisin 0, EDTA 10 mM, pH 8.0): 100%
- % Survival 2 hr (S. aureus) ([9]; nisin 0, EDTA 30 mM, pH 8.0): 100%
- % Survival 2 hr (Coryneform bacteria) ([10]; nisin 0, EDTA 0.3 mM): 4.6%
- % Survival 2 hr (Coryneform bacteria) ([10]; nisin 0, EDTA 1.0 mM): 3.6%
- % Survival 2 hr (Coryneform bacteria) ([10]; nisin 0, EDTA 3.0 mM): 8%
- % Survival 2 hr (Coryneform bacteria) ([10]; nisin 0, EDTA 10 mM): 36%
- % Survival at 2 hours (K. pneumoniae) ([11]; nisin 0, EDTA 20 mM): 22%

Compound: monooleate
- bactericidal activity towards L. monocytogenes ([6]; monooleate by itself): no bactericidal activity
- % Survival 2 hr (L. monocytogenes) ([6]; nisin 0, monooleate 0.1%, 37° C.): 67%
- % Survival 2 hr (L. monocytogenes) ([6]; nisin 0, monooleate 1.0%, 37° C.): 63%

Compound: CCCCCCCCCCCC(=O)OCC(O)CO (stereo not drawn) [Monolaurin, monolaurin]
- bactericidal activity towards Streptococcus agalactiae ([1]; monolaurin at concentrations up to 0.1%): little significant bactericidal activity
- % survival at 2 h (S. agalactiae) ([1]; nisin 0, monolaurin 0.01%, 37° C.): 100%
- % survival at 2 h (S. agalactiae) ([1]; nisin 0, monolaurin 0.1%, 37° C.): 4.5%

Compound: Triton X-100
- Percentage E. coli Survival at 2 hours ([7]; nisin 0, EDTA 0, Triton X-100 1.0%): 100%
- bactericidal activity towards E. coli ([7]; tests #3 and #4, Table 4): no significant bactericidal activity
